Among the data in patent US4767762A, “Tricyclic quinoline and naphthyride antibacterials” (Abbott Laboratories, priority 1986, dated 1988) are MIC values, retold here.

Each structure is given as a SMILES string. Converted amounts (≈) assume the structure as drawn.

Holding throughout (experiment): in vitro antibacterial activity (MIC), conventional agar dilution
What all share (format): cell-based

One test concerns Strep. Pyogenes EES61. As to conditions: Streptococcus pyogenes, brain-heart infusion agar, inoculum 10^4 /plate. On the procedure:
(§1) The in vitro antibacterial activity is determined by conventional agar dilution procedures. A brain-heart infusion agar medium containing the drug is inoculated with a microbial culture cultivated on a brain-infusion broth (Difco 0037-01-6) at 36° C. for 18 hours and then observes for growth of the microorganism. The minimum concentration at which growth of the microorganism is inhibited is taken as MIC (ug/ml). The inoculum size is 10^4 /plate.

A further test concerns P. aeruginosa A5007. As to conditions: Pseudomonas aeruginosa, brain-heart infusion agar, inoculum 10^4 /plate. On the procedure:
as §1

The subject of a further test is K. pneumoniae ATCC 8045. As to conditions: Klebsiella pneumoniae, ATCC8045, brain-heart infusion agar, inoculum 10^4 /plate. Here is the method: as §1
The next test deals with E. coli Juhl. As to conditions: Escherichia coli, brain-heart infusion agar, inoculum 10^4 /plate. Here is the method: as §1
For another test, the system named is Acinetobacter sp CMX 669. As to conditions: CMX669, brain-heart infusion agar, inoculum 10^4 /plate. Here is the method: as §1
The subject of test [1] is Ent. aerogenes ATCC 13048. As to conditions: Klebsiella aerogenes, ATCC13048, brain-heart infusion agar, inoculum 10^4 /plate. On the procedure: as §1
A further test relates to P. stuartii CMX 640. As to conditions: Providencia stuartii, CMX640, brain-heart infusion agar, inoculum 10^4 /plate. On the procedure: as §1
In another test the test system is Ent. faecium ATCC 8043. As to conditions: Enterococcus faecium, ATCC8043, brain-heart infusion agar, inoculum 10^4 /plate. Here is the method: as §1
A further test relates to Stap. aureus ATCC-6538p. The note with it: Staphylococcus aureus, ATCC6538P, brain-heart infusion agar, inoculum 10^4 /plate. Here is the method: as §1
A further test deals with Stap. epidermis 3519. As to conditions: brain-heart infusion agar, inoculum 10^4 /plate. Here is the method: as §1

Consider `CCn1c2s[nH]c(=O)c2c(=O)c2cc(F)c(N3CCC(N)C3)c(F)c21` (stereo not shown) [47(g), 9-ethyl-6,8-difluoro-7-(3-amino-1-pyrrolidinyl)-2,3,4,9-tetrahydroisothiazolo[5,4-b]quinoline-3,4-dione], for which the MIC with Strep. Pyogenes EES61 was determined as 0.78 µg/mL (≈ 2.13 µM); in the test with P. aeruginosa A5007, 0.78 µg/mL (≈ 2.13 µM); against K. pneumoniae ATCC 8045, 0.01 µg/mL (≈ 0.0273 µM); against E. coli Juhl, 0.01 µg/mL (≈ 0.0273 µM); with Acinetobacter sp CMX 669, 0.1 µg/mL (≈ 0.273 µM); in test [1], 0.02 µg/mL (≈ 0.0546 µM). In addition, the minimum inhibitory concentration (MIC) in the test on P. stuartii CMX 640 is 0.78 µg/mL (≈ 2.13 µM); against Ent. faecium ATCC 8043, 0.2 µg/mL (≈ 0.546 µM); in the test on Stap. aureus ATCC-6538p, 0.05 µg/mL (≈ 0.136 µM); with Stap. epidermis 3519, 0.1 µg/mL (≈ 0.273 µM).
